Results published in publication PMC3244877 (2009).

Target: T1, HsEg5 (Homo sapiens, UniProt P52732)
T1 sequence (P52732 1-370): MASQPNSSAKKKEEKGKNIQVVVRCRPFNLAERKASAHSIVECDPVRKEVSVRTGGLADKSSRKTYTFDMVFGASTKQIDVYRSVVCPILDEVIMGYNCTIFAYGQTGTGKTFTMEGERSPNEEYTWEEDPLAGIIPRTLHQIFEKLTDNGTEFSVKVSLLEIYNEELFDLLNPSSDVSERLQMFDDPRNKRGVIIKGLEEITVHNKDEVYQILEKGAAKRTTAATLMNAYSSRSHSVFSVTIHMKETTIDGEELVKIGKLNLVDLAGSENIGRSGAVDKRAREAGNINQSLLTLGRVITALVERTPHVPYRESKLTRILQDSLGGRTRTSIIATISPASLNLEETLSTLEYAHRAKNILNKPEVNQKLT
Assay: NADH-coupled basal ATPase assay, Lineweaver-Burk
Type: biochemical

For `[Mo]` [NSC 622124], the Ki was 550 nM.
